Test results from ChEMBL document CHEMBL1177708, “Design, synthesis, and biological evaluation of a novel class of gamma-secretase modulators with PPARgamma activity” (J Med Chem, 2010).
The source made the active and inactive calls. The calls are words filed in the database; no cut-off is given here.

Key:
[1] = target: T1, Peroxisome proliferator-activated receptor gamma (Homo sapiens) (UniProt P37231); test: Agonist activity at human PPARgamma-LBD expressed in COS7 cells co-transfected with Gal4 by luciferase based transactivation assay relative to pioglitazone; type: functional, cell-based; conditions: COS-7
T1 sequence (whole entry): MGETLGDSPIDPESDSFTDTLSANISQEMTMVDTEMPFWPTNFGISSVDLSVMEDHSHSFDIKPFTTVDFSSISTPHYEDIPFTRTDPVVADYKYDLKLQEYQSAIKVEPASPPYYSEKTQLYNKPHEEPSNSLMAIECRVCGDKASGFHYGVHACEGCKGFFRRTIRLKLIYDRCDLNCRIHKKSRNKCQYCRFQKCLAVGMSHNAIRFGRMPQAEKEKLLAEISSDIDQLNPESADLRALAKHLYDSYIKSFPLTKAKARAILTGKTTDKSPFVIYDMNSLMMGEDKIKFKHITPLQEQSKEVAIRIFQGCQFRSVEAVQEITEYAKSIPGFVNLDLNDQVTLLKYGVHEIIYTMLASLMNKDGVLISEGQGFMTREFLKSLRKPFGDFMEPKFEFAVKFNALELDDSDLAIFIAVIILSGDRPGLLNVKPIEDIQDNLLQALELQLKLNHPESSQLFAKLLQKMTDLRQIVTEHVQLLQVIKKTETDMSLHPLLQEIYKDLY

CHO [2] = test: Modulation of gamma-secretase-mediated notch signaling expressed in CHO cells transfected with Gal4-DNA-binding/VP16 transactivation domain assessed as reduction of reporter activity at 5 to 40 uM after 24 hrs; type: cell-based
[3] = target: T2, Peroxisome proliferator-activated receptor alpha (Homo sapiens) (UniProt Q07869); test: Agonist activity at human PPARalpha-LBD expressed in COS7 cells co-transfected with Gal4 at 10 uM by luciferase based transactivation assay; type: functional, cell-based; conditions: COS-7
T2 sequence (whole entry): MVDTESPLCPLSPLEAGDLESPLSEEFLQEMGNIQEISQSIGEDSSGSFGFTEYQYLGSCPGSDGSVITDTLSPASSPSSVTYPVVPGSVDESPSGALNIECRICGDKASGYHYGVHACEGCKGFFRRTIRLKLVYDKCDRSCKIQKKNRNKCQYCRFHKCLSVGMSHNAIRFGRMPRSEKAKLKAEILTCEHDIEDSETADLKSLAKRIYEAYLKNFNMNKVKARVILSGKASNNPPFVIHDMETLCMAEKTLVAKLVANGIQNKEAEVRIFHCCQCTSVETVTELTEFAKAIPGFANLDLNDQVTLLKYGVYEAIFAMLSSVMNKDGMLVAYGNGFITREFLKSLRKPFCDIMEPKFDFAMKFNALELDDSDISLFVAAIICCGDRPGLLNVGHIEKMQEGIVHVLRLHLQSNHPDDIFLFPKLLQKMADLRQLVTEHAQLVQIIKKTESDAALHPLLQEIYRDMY

[4] = target: T3, Prostaglandin G/H synthase 1 (Ovis aries, UniProt P05979)
T3 sequence (P05979 whole entry): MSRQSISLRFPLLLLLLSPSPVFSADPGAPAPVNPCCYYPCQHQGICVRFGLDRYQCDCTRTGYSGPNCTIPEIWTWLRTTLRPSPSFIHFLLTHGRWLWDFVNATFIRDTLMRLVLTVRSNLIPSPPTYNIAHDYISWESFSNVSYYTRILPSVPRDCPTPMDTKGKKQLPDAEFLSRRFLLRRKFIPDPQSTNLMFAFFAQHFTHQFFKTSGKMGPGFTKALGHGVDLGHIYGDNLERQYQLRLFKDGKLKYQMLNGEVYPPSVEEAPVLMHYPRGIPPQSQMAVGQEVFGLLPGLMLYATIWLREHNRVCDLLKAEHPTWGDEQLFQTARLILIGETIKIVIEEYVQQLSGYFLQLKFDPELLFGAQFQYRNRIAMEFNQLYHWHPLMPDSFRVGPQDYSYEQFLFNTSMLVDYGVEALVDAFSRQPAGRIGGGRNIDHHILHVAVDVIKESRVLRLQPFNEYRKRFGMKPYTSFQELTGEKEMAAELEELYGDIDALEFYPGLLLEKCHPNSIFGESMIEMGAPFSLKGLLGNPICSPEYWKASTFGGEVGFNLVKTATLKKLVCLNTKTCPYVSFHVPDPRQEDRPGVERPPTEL
Description: Inhibition of ovine COX1 after 5 mins

[5] = Modulation of gamma-secretase-mediated cleavage of human APP expressed in CHO cells with human presenilin-1 assessed as activation of amyloid beta38 production after 24 hrs by ELISA; type: cell-based
CHO [6] = test: Cytotoxicity against CHO cells at 60 uM after 24 hrs by Alamar blue assay; type: cell-based, Cricetulus griseus; conditions: chinese hamster
[7] = target: T4, Prostaglandin G/H synthase 2 (Homo sapiens) (UniProt P35354); test: Inhibition of human recombinant COX2 assessed as residual activity at 10 uM after 5 mins
T4 sequence (whole entry): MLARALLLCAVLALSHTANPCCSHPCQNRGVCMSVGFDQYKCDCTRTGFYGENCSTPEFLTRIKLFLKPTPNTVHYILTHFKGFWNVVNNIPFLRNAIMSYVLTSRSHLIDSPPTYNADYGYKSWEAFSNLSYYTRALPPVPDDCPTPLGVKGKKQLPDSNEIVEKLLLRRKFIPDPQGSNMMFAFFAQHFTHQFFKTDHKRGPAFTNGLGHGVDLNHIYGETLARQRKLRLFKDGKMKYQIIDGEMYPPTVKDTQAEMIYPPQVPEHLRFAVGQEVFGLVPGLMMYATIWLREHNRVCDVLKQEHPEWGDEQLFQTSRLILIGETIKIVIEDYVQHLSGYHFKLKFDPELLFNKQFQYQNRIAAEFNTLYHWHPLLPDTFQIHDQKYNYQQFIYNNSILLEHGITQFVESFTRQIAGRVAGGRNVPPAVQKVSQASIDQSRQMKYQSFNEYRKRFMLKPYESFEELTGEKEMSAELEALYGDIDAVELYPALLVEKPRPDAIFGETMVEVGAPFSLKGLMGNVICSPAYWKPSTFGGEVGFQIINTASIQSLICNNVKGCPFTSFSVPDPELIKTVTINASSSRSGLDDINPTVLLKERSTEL

cells = conditions: CHO, 24 h
Description: Modulation of gamma-secretase-mediated cleavage of human APP expressed in CHO cells with human presenilin-1 assessed as inhibition of amyloid beta42 production after 24 hrs by ELISA

[8] = target: T5, Peroxisome proliferator-activated receptor gamma (Homo sapiens, UniProt P37231); test: Agonist activity at human PPARgamma-LBD expressed in COS7 cells co-transfected with Gal4 by luciferase based transactivation assay; type: functional, cell-based, COS-7
T5 sequence (P37231 whole entry): T1 sequence (whole entry)

[9] = target: T6, Prostaglandin G/H synthase 1 (Ovis aries) (UniProt P05979); test: Inhibition of ovine COX1 assessed as residual activity at 10 uM after 5 mins
T6 sequence (whole entry): T3 sequence (P05979 whole entry)

[10] = target: T7, Peroxisome proliferator-activated receptor delta (Homo sapiens) (UniProt Q03181); test: Agonist activity at human PPARdelta-LBD expressed in COS7 cells co-transfected with Gal4 at 10 uM by luciferase based transactivation assay; type: functional, cell-based; conditions: COS-7
T7 sequence (whole entry): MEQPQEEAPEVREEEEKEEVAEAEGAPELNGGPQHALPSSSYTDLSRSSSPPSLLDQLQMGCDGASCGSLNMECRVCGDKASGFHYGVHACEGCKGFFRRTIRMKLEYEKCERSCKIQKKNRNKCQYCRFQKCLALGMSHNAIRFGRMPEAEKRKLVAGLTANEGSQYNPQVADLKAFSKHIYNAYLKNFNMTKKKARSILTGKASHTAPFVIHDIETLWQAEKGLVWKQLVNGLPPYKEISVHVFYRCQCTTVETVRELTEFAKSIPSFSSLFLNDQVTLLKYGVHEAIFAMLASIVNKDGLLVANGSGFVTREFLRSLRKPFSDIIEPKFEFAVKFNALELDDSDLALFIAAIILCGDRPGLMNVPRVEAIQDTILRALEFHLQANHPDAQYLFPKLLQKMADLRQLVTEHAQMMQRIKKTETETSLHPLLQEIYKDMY

[11] = target: T1, Peroxisome proliferator-activated receptor gamma (Homo sapiens); test: Agonist activity at human PPARgamma-LBD expressed in COS7 cells co-transfected with Gal4 at 10 uM by luciferase based transactivation assay; conditions: COS-7
[12] = target: T1, Peroxisome proliferator-activated receptor gamma (Homo sapiens); test: Agonist activity at human PPARgamma-LBD expressed in COS7 cells co-transfected with Gal4 at 20 uM by luciferase based transactivation assay; type: functional, cell-based; conditions: COS-7
[13] = target: T1, Peroxisome proliferator-activated receptor gamma (Homo sapiens); test: Agonist activity at human PPARgamma-LBD expressed in COS7 cells co-transfected with Gal4 at 10 uM by luciferase based transactivation assay; type: functional, cell-based; conditions: COS-7
[14] = target: T1, Peroxisome proliferator-activated receptor gamma (Homo sapiens); test: Agonist activity at human PPARgamma-LBD expressed in COS7 cells co-transfected with Gal4 at 6 uM by luciferase based transactivation assay; type: functional, cell-based; conditions: COS-7
CHO [15] = test: Modulation of gamma-secretase-mediated notch signaling expressed in CHO cells transfected with Gal4-DNA-binding/VP16 transactivation domain assessed as reduction of reporter activity at 0.5 uM after 24 hrs; type: cell-based
[16] = target: T3, Prostaglandin G/H synthase 1; remark: listed apart in the source
Description: Inhibition of ovine COX1 after 5 mins

| SMILES | Emax [1] [%] | Activity (CHO [2]) | Activity [3] | IC50 [4] [µM] | EC50 [5] [µM] | Activity (CHO [6]) | Activity [7] [%] | IC50 (cells) [µM] | EC50 [8] [µM] | Activity [9] [%] | Activity [10] | Activity [11] | Activity [12] [%] | Activity [13] [%] | Activity [14] [%] | Activity (CHO [15]) | IC50 [16] |
| --- | --- | --- | --- | --- | --- | --- | --- | --- | --- | --- | --- | --- | --- | --- | --- | --- | --- |
| CCCCC(Sc1nc(OCCC2CCCCC2)cc(OCCC2CCCCC2)n1)C(=O)O (stereo not drawn) | 71 | inactive | inactive | 13.4 | 4.6 | Non-toxic | 49.5 | 5.1 | 6.6 | 52.7 | inactive | – | – | – | – | – | – |
| CCCCC(Sc1nc(OCCC2CCCCCC2)cc(OCCC2CCCCCC2)n1)C(=O)O (stereo not drawn) | – | – | inactive | – | 1.9 | Non-toxic | 50.1 | 11.3 | – | 56.1 | inactive | inactive | – | – | – | – | – |
| CCCCC(Sc1nc(OCCc2ccsc2)cc(OCCc2ccsc2)n1)C(=O)O (stereo not drawn) | – | – | inactive | – | 17.5 | Non-toxic | 102 | 37.7 | – | 76.6 | inactive | – | 32 | – | – | – | – |
| CCCCC(Sc1nc(OCc2ccccc2)cc(OCc2ccccc2)n1)C(=O)O (stereo not drawn) | – | – | inactive | – | 24.2 | Non-toxic | 61.6 | 25.2 | – | 88.9 | inactive | – | 31 | – | – | – | – |
| CCCC[C@@H](Sc1nc(OCCc2ccccc2)cc(OCCc2ccccc2)n1)C(=O)O | – | – | inactive | – | 8.4 | Non-toxic | 98.5 | 21.5 | – | 73.9 | inactive | – | – | 22 | – | – | – |
| CC(C(=O)O)c1ccc2c(c1)[nH]c1ccc(Cl)cc12 (stereo not drawn) [CARPROFEN] | – | – | – | 13 | – | – | – | 305 | – | – | – | – | – | – | – | – | – |
| CCCCC(Sc1nc(OCCc2ccc(OC)cc2)cc(OCCc2ccc(OC)cc2)n1)C(=O)O (stereo not drawn) | – | – | inactive | – | 6.2 | Non-toxic | 94.6 | 19.3 | – | 72.8 | inactive | – | – | 23 | – | – | – |
| CCCCC(Sc1nc(OCCc2ccc([N+](=O)[O-])cc2)cc(OCCc2ccc([N+](=O)[O-])cc2)n1)C(=O)O (stereo not drawn) | – | – | inactive | – | – | Non-toxic | 91.6 | 31.2 | – | 82.1 | inactive | – | – | – | 33 | – | – |
| CSc1ccc(/C=C2/C(C)=C(CC(=O)O)c3cc(F)ccc32)cc1 [SULINDAC SULFIDE] | – | – | – | 0.05 | – | – | – | 34 | – | – | – | – | – | – | – | – | – |
| O=C(O)C(Sc1nc(OCCc2ccccc2)cc(OCCc2ccccc2)n1)c1ccccc1 (stereo not drawn) | – | – | inactive | – | 12.8 | Non-toxic | 86 | 29.3 | – | 72.2 | inactive | inactive | – | – | – | – | – |
| CC(C)C[C@H](NC(=O)[C@H](Cc1ccccc1)C[C@@H](O)[C@H](Cc1ccccc1)NC(=O)OC(C)(C)C)C(=O)N[C@@H](Cc1ccccc1)C(N)=O | – | – | – | – | – | – | – | – | – | – | – | – | – | – | – | Active | – |
| C[C@@H](C(=O)O)c1ccc(-c2ccccc2)c(F)c1 [TARENFLURBIL] | – | – | – | – | – | – | – | 305 | – | – | – | – | – | – | – | – | Not Active |
| CCCCC(Sc1nc(OCCc2ccccc2)cc(OCCc2ccccc2)n1)C(=O)O (stereo not drawn) | 61 | – | inactive | 18.7 | 11.3 | Non-toxic | 90.9 | 22.8 | 8.3 | 64.2 | inactive | – | – | – | – | – | – |
